Measurements from US9949369B2, “Cyanate ester compound, curable resin composition containing the same, and hardened product thereof” (MITSUBISHI GAS CHEMICAL COMPANY, INC., priority 2013, dated 2018).

Assay: Solubility of the cyanate ester monomer in methyl ethyl ketone (MEK)
Type: physicochemical
Conditions: 25° C.

In the case of CC12CC3(C)CC(c4ccc(OC#N)cc4)(C1)CC(c1ccc(OC#N)cc1)(C2)C3 [AMTCN, 1,3-Bis(4-Cyanatophenyl)-5,7-Dimethyladamantane], the “amount that could be dissolved in methyl ethyl ketone (MEK)” value is reported as ≥ 50 % by mass.
In the case of Cc1cc(C23CC4(C)CC(C)(C2)CC(c2ccc(OC#N)c(C)c2)(C4)C3)ccc1OC#N [AMTcCN, 1,3-Bis(3-Methyl-4-Cyanatophenyl)-5,7-Dimethyladamantane], the “amount that could be dissolved in methyl ethyl ketone (MEK)” value is reported as ≥ 50 % by mass.
